Assay results: paper PMC3530165 (Chemistry & biology, 2012)
Where two headings read alike, the source gives them in different places.

Target: C619A GlcB (malate synthase) (Mycobacterium tuberculosis, UniProt P9WK17, C619A)

Structure (SMILES) | IC50 [µM] | IC50 (read-out: IC50 against GlcB) [µM]
O=C(O)C(=O)CC(=O)c1ccccc1F [Compound 2] | 0.24 | 
O=C(O)C(=O)CC(=O)c1ccccc1Cl [Compound 3] | 0.5 | 
O=C(O)C(=O)CC(=O)c1cccc(Cl)c1 [Compound 6] | 0.17 | 
Cc1ccc(C(=O)CC(=O)C(=O)O)cc1 [Compound 8] | 6 | 5.7
O=C(O)C(=O)CC(=O)c1ccc(Br)cc1 [Compound 9] | 5.7 | 6
